Measurements reported in US5214034A, “Catechol derivatives, and preventive and remedial preparations for regressive disorders in the central nervous system containing the same” (priority 1986, dated 1993).
Like-named read-outs stand apart in the source and are kept apart here.

Legend:
[1] = Acute toxicity (LD50); conditions: mouse, in vivo
Method: The catechol derivative having normal type saturated lower alkyl groups on the ring was administered by intravenous injection (i.v.), intraperitoneal injection (i.p.) or oral route (p.o.) to male ddy mice of 4-week old. The LD50 values (mg/kg) were measured by an ordinary method.

[2] = tested on: NGF; assay: NGF production in the central nervous system of normal rats by intraperitoneal injection (NGF content of brain tissue, ELISA); type: in vivo, rat (Wistar male); conditions: Table 7, i.p., three times every other day; for NGF content after 48 hr.: 48 hours after final administration; for NGF content after 7 days: 7 days after final administration
Method: The derivative (A), e.g. R=Two H, R1 =H and R2 =n-propyl (hereinafter referred to as 4-n-propylcatechol), was administered to normal rats by intraperitoneal injection, and the effect was examined.
4-n-Propylcatechol was administered by intraperitoneal injection 4 times every other day in a dosage of 5 mg/kg. The rats were killed two days after the final administration. The NGF content of each parts in brain was measured. The content was compared with those of control group which was administered saline alone.
A variety of the derivative was administered three times every other day. The content of NGF in the forebrain after 48 hours and 7 days from the final administration was measured and illustrated in Table 7.
Wistar male rats (9-10-week old, 200-250 g of weight) were intraperitoneally injected with the test derivative in a volume of 0.5 ml as a saline solution, emulsion or suspension. Dose and administration times were the same as above. The rats were killed by a hard spinal blow two days after the final administration. Each parts of brain were dissected and subjected to the following treatment under ice cooling.
Each parts of brain were weighed and homogenized for 30 strokes by a Dounce type homogenizer in a homogenization buffer (0.1 M Tris-HCl, containing 2% bovine serum albumin fraction V, 2% gelatin, 1.0 M NaCl, 0.02% NaN3, 2 mM EDTA and 2.6 kiu/ml of aprotinin, pH 7.6) at a concentration of 10% (W/V) (only septum 5% (W/V)). Each homogenate was centrifuged at 100,000 xg for 10 minutes, and 50 μl of supernatant was added with the same amount of a dilution buffer (0.1 M Tris-HCl containing 2% bovine serum albumin fraction V, 0.05% NaN3 and 20 mM CaCl2, pH 7.6). Determination was conducted in accordance with a method of S. Furukawa et al. by using a high sensitivity ELISA system on 8-NGF which was described in J. Neurochem., 40, 734-744 (1983). Lower limit of determination is 0.25 pg/ml. Data are indicated as a mean value ±SE on the NGF content of tissue (pg/mg wet tissue) of five rats.

[3] = tested on: production and secretion of NGF on L-M cells; assay: Promoting action for the production and secretion of NGF on L-M cells of mouse (ELISA); type: cell-based; conditions: Mus musculus
Excerpt: Catecholamines have also been found in a relatively high concentration to accelerate these functions without being mediated by adrenergic receptors [Y. Furukawa et al., J. Biol. Chem., 261, 6039-6047 (1986)].
The compound having a high activity in Table 1, that is, the catechol derivative having a n-alkyl group in the 3 or 4 position on the ring has been observed an acute cell toxicity in higher concentrations. The toxicity was considered the result of two hydroxyl groups in the catechol structure. Then the hydroxyl groups were esterified or etherified and the resulting derivative was examined the effect on the activity for the production and secretion of NGF.
The experiment was performed according to the procedures of Y. Furukawa et al. which is described in J. Bis Chem., 261, 6039-6047 (1986).
The medium was cultured for 3 days at a temperature of 37° C. After completing the confluency (about 10^6 cells/well), the medium was changed to Medium 199 (0.5 ml/well) containing 0.5% bovine serum albumin (Fraction V, a product of Armour Co.). The sample of the derivative is contained in the medium at a prescribed concentration as illustrated in the Tables.

[4] = tested on: production and secretion of NGF in brain astroglial cells; assay: Promoting activity for the production and secretion of NGF in brain astroglial cells of mouse (ELISA)
Method: The experiment was performed by inducing the astroglial cells from mouse forebrain to culture system according to the procedures of S. Furukawa et al. which is described in Biochem. Biophys. Res. Commun., 136, 57-63 (1986).
That is, forebrains of 8-day old mice were dissected out and cut into small pieces. […] Cells and cell clamps were recovered by centrifugation at 200 xg for 5 minutes. They were cultured in Dulbecco modified Eagle's medium (a product of Gibco Co. hereinafter abbreviated as DMEM) containing 10% of fetal calf serum, […] of penicillin, and 50 μg/ml of streptomycin, for 10 to 14 days with medium changes every 3 days. After completing confluency, the cells were dissociated by trypsin treatment and recultured in new culture flasks. This procedure was repeated further twice and more. […] The cells will hereinafter be referred to as astroglial cells.
Astroglial cells were innoculated in 24-well plates having a well surface area of 2.1 cm^2 (a product of Falcon Co.) at a cell density of about 3×10^4 cells/well and cultured for 3 days in DMEM . medium supplemented with 10% of fetal calf serum. After completing confluency about 10^7 cells/well), the medium was changed to DMEM medium (0.5 ml/well) supplemented with 0.5% of bovine serum albumin ((fraction V) and cultured for 3 days. The culture was further continued with medium changes every 3 days. After cells were practically synchronized in the quiscent stage, the medium was changed to 0.5 ml of the medium supplemented with 0.5% of bovine serum albumin and containing a prescribed concentration of test sample as illustrated in Tables. […] Data are expressed as fold increase in NGF content over that in the absence of the test sample. […] Data are presented as means ±SE of four determinations.

[5] = ip, intraperitoneal injection, read-out: LD50 i.p.
[6] = intravenous injection, read-out: LD50 i.v.
[7] = oral route, read-out: LD50 p.o.
[8] = 24 h, read-out: Ratio of NGF increase
[9] = 24 h, read-out: Ratio of NGF increase, Table 3, 0.10 mM, 24 hours, mean ± SE of four determinations
[10] = 24 h, read-out: Ratio of NGF increase, Table 3, 0.25 mM, 24 hours, mean ± SE of four determinations
[11] = 24 h, read-out: Ratio of NGF increase, 24-hr culture
[12] = 48 h, read-out: Ratio of NGF increase, 48-hr culture

| SMILES | LD50 [1, 5] [mg/kg] | LD50 [1, 6] [mg/kg] | LD50 [1, 7] [mg/kg] | NGF content after 48 hr. [2] | NGF content after 7 days [2] | fold induction at 30 µM [3, 8] | fold induction at 100 µM [3, 8] | fold induction at 100 µM [4, 9] | fold induction at 250 µM [4, 10] | fold induction at 30 µM [3, 11] | fold induction at 150 µM [3, 11] | fold induction at 30 µM [3, 12] | fold induction at 150 µM [3, 12] | fold induction at 100 µM ([4]; 24 h, read-out: Ratio of NGF increase, 24-hr culture, Table 4, 0.10 mM, 24-hr culture) | fold induction at 250 µM ([4]; 24 h, read-out: Ratio of NGF increase, 24-hr culture, Table 4, 0.25 mM, 24-hr culture) | fold induction at 100 µM ([4]; 48 h, read-out: Ratio of NGF increase, 48-hr culture, Table 4, 0.10 mM, 48-hr culture) | fold induction at 250 µM ([4]; 48 h, read-out: Ratio of NGF increase, 48-hr culture, Table 4, 0.25 mM, 48-hr culture) | LD50 ([1]; ip, read-out: LD50 i.p.) [mg/kg] | LD50 ([1]; iv, read-out: LD50 i.v.) [mg/kg] | LD50 ([1]; po, read-out: LD50 p.o.) [mg/kg] |
| --- | --- | --- | --- | --- | --- | --- | --- | --- | --- | --- | --- | --- | --- | --- | --- | --- | --- | --- | --- | --- |
| CCCc1ccc2c(c1)OC(C)(C)O2 [R = --C(CH3)2 --, R1 = H, R2 = n-Propyl, 5-n-Propyl-2,2-dimethyl-1,3-benzodioxol] | > 1500 | > 500 | > 3500 | 1.15 ± 0.18 pg/mg wet tissue of frontal co | 1.51 ± 0.49 pg/mg wet tissue of frontal co |  |  |  |  |  |  |  |  |  |  |  |  |  |  |  |
| CCCc1ccc2oc(=O)c(=O)oc2c1 [R = --CO.CO--, R1 = H, R2 = n-Propyl, 6-n-propyl-1,4-benzodioxine-2,3-dione] | > 1250 | > 250 | > 3000 | 1.54 ± 0.20 pg/mg wet tissue of frontal co | 2.02 ± 0.47 pg/mg wet tissue of frontal co |  |  |  |  |  |  |  |  |  |  |  |  |  |  |  |
| CCc1ccc(O)c(O)c1 [R = Two H, R1 = H, R2 = Ethyl, 4-ethylcatechol] | > 300 | > 75 | > 1000 | 1.96 ± 0.42 pg/mg wet tissue of frontal co | 1.73 ± 0.39 pg/mg wet tissue of frontal co | 10 ± 0.97 | 12.1 ± 1.09 | 55.2 ± 3.24 | 64.7 ± 4.26 |  |  |  |  |  |  |  |  |  |  |  |
| Cc1ccc(O)c(O)c1 [R = Two H, R1 = H, R2 = Methyl, 4-Methylcatechol] | > 200 | > 50 | > 500 | 2.26 ± 0.24 pg/mg wet tissue of frontal co | 1.64 ± 0.46 pg/mg wet tissue of frontal co | 8.91 ± 0.43 | 2.36 ± 1.9 | 80.8 ± 4.21 | 4.89 ± 1.37 | 8.77 ± 0.66 | 2.87 ± 0.54 | 9.21 ± 0.69 | 2.49 ± 0.88 | 77.3 ± 9.21 | 6.59 ± 1.34 | 106 ± 7.61 | 2.47 ± 1.22 |  |  |  |
| CCCCc1ccc(O)c(O)c1 [R = Two H, R1 = H, R2 = n-Butyl, 4-n-butylcatechol] | > 500 | > 150 | > 1500 | 1.88 ± 0.46 pg/mg wet tissue of frontal co | 2.25 ± 0.33 pg/mg wet tissue of frontal co | 8.21 ± 1.1 | 14 ± 1.33 | 59.7 ± 3 | 88.3 ± 2.47 |  |  |  |  |  |  |  |  |  |  |  |
| CCCc1cccc(O)c1O [R = Two H, R1 = n-Propyl, R2 = H] |  |  |  | 2.03 ± 0.37 pg/mg wet tissue of frontal co | 2.00 ± 0.43 pg/mg wet tissue of frontal co | 9.81 ± 0.92 | 16.3 ± 2.04 | 72.9 ± 7.09 | 97 ± 9.24 |  |  |  |  |  |  |  |  | > 500 | > 150 | > 1500 |
| CCCc1ccc(OC(C)=O)c(OC(C)=O)c1 [R = Two acetyl, R1 = H, R2 = n-Propyl, 1,2-diacetoxy-4-propylbenzene] | > 750 | > 250 | > 2500 | 1.71 ± 0.28 pg/mg wet tissue of frontal co | 2.16 ± 0.46 pg/mg wet tissue of frontal co |  |  |  |  |  |  |  |  |  |  |  |  |  |  |  |
